In ChEMBL document CHEMBL2034872, “Antineoplastic agents. 587. Isolation and structure of 3-epipancratistatin from Narcissus cv. Ice Follies” (2012):
In brackets after ≈: the same amount, converted by molar mass.

Key:
Format in all cases: functional
[1] = test system: P388; assay: Cytotoxicity against mouse P388 cells after 48 hrs by cell counting; settings: P388, 48 h, read-out: ED50 (the source's name)
[2] = test system: SF-268; assay: Cytotoxicity against human SF268 cells after 48 hrs by SRB assay; settings: SF-268, 48 h
[3] = test system: DU-145; assay: Cytotoxicity against human DU145 cells after 48 hrs by SRB assay; settings: DU-145, 48 h
[4] = test system: BXPC-3; assay: Cytotoxicity against human BxPC3 cells after 48 hrs by SRB assay; settings: BXPC-3, 48 h
[5] = test system: MCF7; assay: Cytotoxicity against human MCF7 cells after 48 hrs by SRB assay; settings: MCF7, 48 h
[6] = test system: KM-20L2; assay: Cytotoxicity against human KM20L2 cells after 48 hrs by SRB assay; settings: KM-20L2, 48 h
[7] = test system: NCI-H460; assay: Cytotoxicity against human NCI-H460 cells after 48 hrs by SRB assay; settings: NCI-H460, 48 h

Row | Structure (SMILES) | EC50 [1] | GI50 [2] | GI50 [3] | GI50 [4] | GI50 [5] | GI50 [6] | GI50 [7]
1 | O=C1N[C@@H]2C(=C[C@H](O)[C@@H](O)[C@H]2O)c2cc3c(c(O)c21)OCO3 [NARCICLASINE] | 0.018 µg/mL (≈ 0.0586 µM) |  |  |  |  |  | 
2 | O=C1N[C@H]2[C@H](O)[C@H](O)[C@@H](O)[C@H](O)[C@@H]2c2cc3c(c(O)c21)OCO3 [PANCRATISTATIN] | 0.017 µg/mL (≈ 0.0523 µM) | 0.014 µg/mL (≈ 0.043 µM) | 0.015 µg/mL (≈ 0.0461 µM) | 0.02 µg/mL (≈ 0.0615 µM) | 0.023 µg/mL (≈ 0.0707 µM) | 0.025 µg/mL (≈ 0.0769 µM) | 0.032 µg/mL (≈ 0.0984 µM)
3 | O=C1N[C@H]2[C@H](O)[C@@H](O)[C@@H](O)[C@H](O)[C@@H]2c2cc3c(c(O)c21)OCO3 (relative stereo) | 0.69 µg/mL (≈ 2.12 µM) | 0.74 µg/mL (≈ 2.28 µM) | 1.3 µg/mL (≈ 4 µM) | 1.7 µg/mL (≈ 5.23 µM) | 2.2 µg/mL (≈ 6.76 µM) | 2.3 µg/mL (≈ 7.07 µM) | 0.85 µg/mL (≈ 2.61 µM)
